# Earlier results in article PMC9645344, “Serotonin-releasing agents with reduced off-target effects” (Molecular Psychiatry, 2022).
# Molecular target: 5-HT2B receptor (Homo sapiens, UniProt P41595)
# Design: method as in PMID 30610839
# Settings: concentrations as high as 7 µM; cited from earlier work
# 5-HT2B receptor, sequence (P41595 whole entry): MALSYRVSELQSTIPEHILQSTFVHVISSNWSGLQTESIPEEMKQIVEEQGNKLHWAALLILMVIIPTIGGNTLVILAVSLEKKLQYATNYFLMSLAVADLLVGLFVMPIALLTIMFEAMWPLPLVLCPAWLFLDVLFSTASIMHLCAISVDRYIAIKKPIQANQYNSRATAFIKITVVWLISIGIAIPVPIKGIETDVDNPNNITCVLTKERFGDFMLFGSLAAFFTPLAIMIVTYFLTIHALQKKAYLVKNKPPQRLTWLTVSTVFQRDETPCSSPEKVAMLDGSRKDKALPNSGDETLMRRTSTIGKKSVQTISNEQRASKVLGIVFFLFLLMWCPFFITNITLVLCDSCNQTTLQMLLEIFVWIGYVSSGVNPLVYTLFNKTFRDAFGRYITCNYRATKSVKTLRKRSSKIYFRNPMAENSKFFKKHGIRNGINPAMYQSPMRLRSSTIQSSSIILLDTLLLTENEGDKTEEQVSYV
smiles,measurement,value
"Cc1ccc(C(=O)[C@H](C)N)cc1 [S-4-MC, 4-methylcathinone]",binding to the 5-HT2B receptor,no binding
